Data as given in the supplement of paper PMC10307832.

Tests used:
Assay in all cases: relative viability (nuclei count vs DMSO), 5 days (fraction); higher = more cells survive
[1] = compound: C=CCn1c(=O)c2cnc(Nc3ccc(N4CCN(C)CC4)cc3)nc2n1-c1cccc(C(C)(C)O)n1 [Adavosertib] + COc1cccc2cc(-c3nc([C@H]4CC[C@H](C(=O)O)CC4)n4ncnc(N)c34)[nH]c12 [OSI-027] (partner 0.5 µM)
Summary of the method: (§1)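 Nuclei were stained with Hoechst during a one-step fixation (final 0.05% Triton X-100, 1% formaldehyde, 1 ug/ml Hoechst) carried out 5 days after dosing, then counted on 4× images. The cells, lung cancer lines in 1536-well plates, had been dosed by pin tool the day after seeding with one drug alone or a fixed anchor-drug dose plus five library-drug doses (not always all listed) in √10 steps. Relative viability is the nuclei count in treated wells divided by that in vehicle wells, and each value is the median of duplicate plates.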

[2] = compound: COc1nc(N)nc2c1ncn2[C@@H]1O[C@H](CO)[C@@H](O)[C@@H]1O [Nelarabine] + CCNC(=O)c1noc(-c2cc(C(C)C)c(O)cc2O)c1-c1ccc(CN2CCOCC2)cc1 [Luminespib] (partner 0.01 µM)
Summary of the method: as §1

[3] = compound: COc1nc(N)nc2c1ncn2[C@@H]1O[C@H](CO)[C@@H](O)[C@@H]1O [Nelarabine] + CS(=O)(=O)CCNCc1ccc(-c2ccc3ncnc(Nc4ccc(OCc5cccc(F)c5)c(Cl)c4)c3c2)o1 [Lapatinib] (partner 2 µM)
Summary of the method: as §1

[4] = compound: COc1nc(N)nc2c1ncn2[C@@H]1O[C@H](CO)[C@@H](O)[C@@H]1O [Nelarabine] + NC(=O)Nc1cc(-c2cccc(F)c2)sc1C(=O)N[C@H]1CCCNC1 [AZD7762] (partner 0.2 µM)
Summary of the method: as §1

Cell Line | relative viability ([1]; first compound 0.01 µM) | relative viability ([1]; first compound 0.03162 µM) | relative viability ([1]; first compound 0.1 µM) | relative viability ([1]; first compound 0.3162 µM) | relative viability ([2]; first compound 0.01 µM) | relative viability ([2]; first compound 0.03162 µM) | relative viability ([2]; first compound 0.1 µM) | relative viability ([2]; first compound 0.3162 µM) | relative viability ([2]; first compound 1 µM) | relative viability ([3]; first compound 0.01 µM) | relative viability ([3]; first compound 0.03162 µM) | relative viability ([3]; first compound 0.1 µM) | relative viability ([3]; first compound 0.3162 µM) | relative viability ([3]; first compound 1 µM) | relative viability ([4]; first compound 0.01 µM) | relative viability ([4]; first compound 0.03162 µM) | relative viability ([4]; first compound 0.1 µM) | relative viability ([4]; first compound 0.3162 µM) | relative viability ([4]; first compound 1 µM)
EKVX | 0.729 | 0.77 | 0.679 | 0.651 | 0.946 | 0.771 | 0.809 | 0.796 | 0.915 | 0.2 | 0.155 | 0.168 | 0.204 | 0.21 | 0.977 | 0.63 | 0.606 | 0.717 | 0.732
EMC-BAC-2 | 0.375 | 0.412 | 0.396 | 0.307 | 1.41 | 1.16 | 1.11 | 1.22 | 1.28 | 1.05 | 0.909 | 0.883 | 0.962 | 0.885 | 1.2 | 1.1 | 1.18 | 1.22 | 1.17
EPLC-272H | 0.31 | 0.279 | 0.242 | 0.208 | 0.137 | 0.483 | 0.446 | 0.259 | 0.301 | 1.12 | 0.798 | 0.976 | 1.02 | 0.86 | 0.196 | 0.209 | 0.305 | 0.247 | 0.297
H3255 | 0.506 | 0.654 | 0.584 | 0.539 |  | 0.889 | 1 | 0.853 | 0.737 | 0.248 | 0.267 | 0.226 | 0.235 | 0.201 | 0.835 | 0.933 | 0.938 | 0.854 | 0.95
HARA | 0.485 | 0.486 | 0.591 | 0.368 | 0.77 | 0.84 | 1 | 0.863 | 0.749 | 0.971 | 0.666 | 0.719 | 0.808 | 0.767 | 0.426 | 0.284 | 0.307 | 0.441 | 0.373
HCC-15 | 0.669 | 0.786 | 0.756 | 0.802 | 0.304 | 0.158 | 0.349 | 0.295 | 0.409 | 0.987 | 0.798 | 0.928 | 0.883 | 0.9 | 1.47 | 1.15 | 0.967 | 1.17 | 1.19
HCC-44 | 0.525 | 0.484 | 0.538 | 0.578 | 1.33 | 1.34 | 0.965 | 1.1 | 1.24 | 1.08 | 1.07 | 1.14 | 1.03 | 1.02 | 1.01 | 0.951 | 1.05 | 0.999 | 0.955
HCC-78 | 0.355 | 0.354 | 0.325 | 0.339 |  |  |  |  |  | 0.731 | 0.779 |  | 0.902 | 0.631 | 0.708 | 0.673 |  | 0.764 | 0.564
HCC-366 | 0.964 | 1.02 | 0.897 | 0.889 |  |  |  |  |  | 1.46 | 0.952 | 1.23 | 1.2 | 1.17 | 0.371 | 0.217 | 0.228 | 0.411 | 0.287
